Reference: PMC5967867, “An NMDAR positive and negative allosteric modulator series share a binding site and are interconverted by methyl groups” (eLife, 2018)
Several values for one entry are separate records, joined by “and”; a condition that tells them apart may be missing. Equal entries are not always repeated. Where two headings read alike, the source gives them in different places. Marks after values point to notes of the source that are not given here.

Columns and labels:
GluN1/GluN2D NMDARs = GluN1/GluN2D NMDARs (Rattus norvegicus, UniProt P35439+Q62645); assay: Two-electrode voltage-clamp recordings, Xenopus laevis oocytes expressing GluN1/GluN2D; format: cell-based; conditions: for Emax: read-out: Maximal Degree of Modulation (% of control)
GluN1/GluN2D NMDARs, sequence (Q62645 28-1323, other chains not shown): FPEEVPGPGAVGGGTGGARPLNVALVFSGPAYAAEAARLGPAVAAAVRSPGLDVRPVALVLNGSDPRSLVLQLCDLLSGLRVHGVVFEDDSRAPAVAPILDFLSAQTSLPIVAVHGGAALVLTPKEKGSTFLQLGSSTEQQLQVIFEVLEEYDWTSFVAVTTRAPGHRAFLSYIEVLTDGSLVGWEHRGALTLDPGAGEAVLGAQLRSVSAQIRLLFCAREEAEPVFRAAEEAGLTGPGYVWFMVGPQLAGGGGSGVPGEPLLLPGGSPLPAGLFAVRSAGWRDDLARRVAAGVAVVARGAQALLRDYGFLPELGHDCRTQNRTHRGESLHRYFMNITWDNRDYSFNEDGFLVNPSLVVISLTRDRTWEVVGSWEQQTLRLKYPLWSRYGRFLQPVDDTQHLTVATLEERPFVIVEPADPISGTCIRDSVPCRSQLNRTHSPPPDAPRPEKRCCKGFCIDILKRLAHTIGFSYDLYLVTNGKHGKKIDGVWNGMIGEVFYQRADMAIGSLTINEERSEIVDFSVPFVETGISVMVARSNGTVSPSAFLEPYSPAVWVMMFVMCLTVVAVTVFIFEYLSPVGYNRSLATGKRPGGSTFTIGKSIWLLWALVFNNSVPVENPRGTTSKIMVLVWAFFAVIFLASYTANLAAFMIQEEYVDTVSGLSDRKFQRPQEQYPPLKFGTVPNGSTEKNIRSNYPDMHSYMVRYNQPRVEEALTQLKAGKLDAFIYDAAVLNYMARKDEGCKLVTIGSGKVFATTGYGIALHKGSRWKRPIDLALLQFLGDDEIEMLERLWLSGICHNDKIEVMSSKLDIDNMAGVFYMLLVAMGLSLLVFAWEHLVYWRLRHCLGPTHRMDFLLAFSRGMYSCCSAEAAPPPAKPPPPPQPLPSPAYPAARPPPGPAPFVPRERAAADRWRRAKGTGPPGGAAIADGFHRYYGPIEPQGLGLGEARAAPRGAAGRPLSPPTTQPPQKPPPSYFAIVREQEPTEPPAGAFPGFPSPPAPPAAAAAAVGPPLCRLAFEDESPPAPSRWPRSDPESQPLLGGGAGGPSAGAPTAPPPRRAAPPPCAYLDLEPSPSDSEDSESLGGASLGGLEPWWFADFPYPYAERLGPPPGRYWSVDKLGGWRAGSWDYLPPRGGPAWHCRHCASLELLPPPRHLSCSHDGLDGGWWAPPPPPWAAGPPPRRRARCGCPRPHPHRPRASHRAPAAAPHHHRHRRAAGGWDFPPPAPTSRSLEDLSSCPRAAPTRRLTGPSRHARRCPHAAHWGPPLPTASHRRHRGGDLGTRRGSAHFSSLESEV
Protocol: cDNAs for rat wild type NMDAR subunits GluN1-1a (GenBank U11418, U08261; hereafter GluN1 or GluN1a), GluN1-1b (U08263, hereafter GluN1b), GluN2A (D13211), GluN2B (U11419), Glu[…]), and Glu[…], modified as described in [Monyer et al., 1994]) were provided by Drs. S. Heinemann (Salk Institute), S. Nakanishi (Kyoto University), and P. Seeburg (University of Heidelberg). Site-directed mutagenesis was conducted using the QuikChange kit (Agilent Technologies, Santa Clara, CA) following the recommended protocol. DNA sequencing was used to verify all mutations. The amino acid numbering system started with the initiating methionine as residue number one. For expression in Xenopus laevis oocytes, cDNA constructs were linearized by restriction enzymes, and subsequently used to synthesize in vitro cRNAs following the manufacturer's protocol (mMessage mMachine, Ambion, ThermoFisher Scientific, Waltham, MA). […] All extracellular solutions were made from a solution containing (in mM) 90 NaCl, 1 KCl, 10 HEPES, 0.5 BaCl2, 0.01 EDTA (pH 7.4 with NaOH). Experiments were performed using an eight port Modular Valve Positioner (Hamilton Company, Reno, NV) and controlled by custom software (Easy Oocyte, Emory University, Atlanta, GA)to exchange solutions. Oocyte currents were recorded at a holding potential of -40 mV using a two-electrode voltage-clamp amplifier (OC-725B or OC-725C, Warner Instruments, Hamden, CT). […] Measurements are given as mean ± SEM unless otherwise indicated. […] EC50 and IC50 values and confidence intervals reported were calculated by averaging the log(EC50) or log(IC50) value, determining confidence intervals for mean log(EC50) or log(IC50), and converting back to units of molarity. Statistical significance evaluations (α set to 0.05) were performed using a one-way ANOVA with Dunnett's multiple comparison test, a paired t-test, or other appropriate tests as described.

GluN1/GluN2A NMDARs = GluN1/GluN2A NMDARs (Rattus norvegicus, UniProt P35439+Q00959); assay: Whole cell patch-clamp recordings, HEK293 cells expressing GluN1/GluN2A; format: cell-based; conditions: for modulation of high desensitized steady state responses / modulation of low desensitized steady state responses (drug/control): 10 µM, 100/30 µM glutamate/glycine; for modulation of high desensitized steady state responses / modulation of low desensitized steady state responses (drug/control) / Kd: HEK cells; for kon / koff: HEK293; for kon: read-out: association rate kon; for koff: read-out: dissociation rate koff; for Kd: calculated from association and dissociation rates, read-out: kinetically-determined affinity constant Kd
GluN1/GluN2A NMDARs, sequence (Q00959 23-1464, other chains not shown): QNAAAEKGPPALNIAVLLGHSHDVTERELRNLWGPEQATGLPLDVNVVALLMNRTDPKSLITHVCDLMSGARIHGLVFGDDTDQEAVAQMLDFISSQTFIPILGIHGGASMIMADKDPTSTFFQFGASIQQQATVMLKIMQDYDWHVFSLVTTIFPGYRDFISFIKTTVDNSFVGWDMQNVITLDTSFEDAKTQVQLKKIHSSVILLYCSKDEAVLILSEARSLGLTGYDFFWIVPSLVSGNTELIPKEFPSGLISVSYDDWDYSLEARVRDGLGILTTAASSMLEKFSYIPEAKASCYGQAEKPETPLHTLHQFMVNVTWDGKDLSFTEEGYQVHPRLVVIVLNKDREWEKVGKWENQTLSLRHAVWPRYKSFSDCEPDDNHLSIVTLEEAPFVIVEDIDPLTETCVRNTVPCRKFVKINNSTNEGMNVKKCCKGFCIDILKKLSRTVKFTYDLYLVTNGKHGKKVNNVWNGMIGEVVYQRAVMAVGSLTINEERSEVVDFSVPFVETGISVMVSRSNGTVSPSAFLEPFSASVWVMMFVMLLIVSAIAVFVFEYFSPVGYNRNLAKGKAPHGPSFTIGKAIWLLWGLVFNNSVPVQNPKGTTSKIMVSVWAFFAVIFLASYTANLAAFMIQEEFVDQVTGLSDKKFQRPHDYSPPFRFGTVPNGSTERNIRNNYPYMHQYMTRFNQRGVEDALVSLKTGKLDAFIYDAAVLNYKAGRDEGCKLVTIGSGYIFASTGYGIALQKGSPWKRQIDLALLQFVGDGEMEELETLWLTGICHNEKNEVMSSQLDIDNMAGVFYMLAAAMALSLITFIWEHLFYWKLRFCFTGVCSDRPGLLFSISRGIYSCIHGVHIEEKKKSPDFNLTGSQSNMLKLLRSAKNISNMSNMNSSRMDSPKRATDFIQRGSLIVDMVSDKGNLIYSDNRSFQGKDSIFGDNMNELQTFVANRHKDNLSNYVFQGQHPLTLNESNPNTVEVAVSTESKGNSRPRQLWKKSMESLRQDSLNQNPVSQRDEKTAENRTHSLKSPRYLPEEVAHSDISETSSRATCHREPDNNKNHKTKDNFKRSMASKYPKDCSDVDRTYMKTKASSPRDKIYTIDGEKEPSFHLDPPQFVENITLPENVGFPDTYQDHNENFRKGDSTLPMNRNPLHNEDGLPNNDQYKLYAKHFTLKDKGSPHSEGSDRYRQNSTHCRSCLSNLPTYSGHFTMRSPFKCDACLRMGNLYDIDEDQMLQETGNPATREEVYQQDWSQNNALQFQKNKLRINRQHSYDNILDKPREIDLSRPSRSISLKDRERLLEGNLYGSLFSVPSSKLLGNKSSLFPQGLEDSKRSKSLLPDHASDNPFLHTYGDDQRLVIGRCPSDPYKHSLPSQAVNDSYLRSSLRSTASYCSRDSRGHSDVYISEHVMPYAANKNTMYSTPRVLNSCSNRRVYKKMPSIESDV
Protocol: We studied NMDARs expressed in HEK293 cells to investigate the time course of modulator action. […] These modulators were tested on GluN1/GluN2A and GluN1/GluN2D to see whether there were differences in modulation given the distinct properties of these NMDAR subtypes. […] From these we calculated the kinetically-determined affinity constant (Kd), which we found to be similar to the EC50 values determined from concentration-response experiments. […] Complex actions of EU1794-4 and EU1794-27 were observed, with two temporally-distinct phases of modulation evident for the association of these modulators (Figure 4A). Both compounds produced a rapid inhibition followed by a slowly developing potentiating phase for EU1794-27. The rapid association rate determined during the rapid inhibition produced by EU1794-4 was approximately three times faster than EU1794-2; similarly, the dissociation rate was also faster for EU1794-4 than EU1794-2. Quantitative analysis of the slower phases was challenging due to its lower signal-to-noise ratio. Likewise, the rapid inhibitory phase was also difficult to measure for EU1794-27 because its rapid time course was convolved with the potentiation time course. Additionally, the depotentiation time course is preceded by a transient enhancement of the current response, followed by a relaxation to the pre-modulation level. The time course for potentiation and depotentiation were best fit with an exponential function summed with an additional linear component after the rapid phase subsided. […] All modulatory effects were independent of voltage (Figure 4—figure supplement 1A). The steady state modulator responses from HEK293 cells approximately match the concentration-response relationship determined from TEVC recordings from X. laevis oocytes (Figure 4A, inset graphs). The time-course of modulator binding of EU1794-2, EU1794-4 and EU1794-27 was also determined for GluN1/GluN2A (Figure 4C,D). Higher Kd values (lower potency) were determined for each molecule at GluN1/GluN2A as compared to GluN1/GluN2D that parallel EC50 values determined using X. laevis oocytes. Similar to oocyte data, robust inhibition was produced by EU1794-2, modest inhibition was produced by EU1794-4, and transient inhibition and recovery was observed by the application of EU1794-27. […] The low desensitized group (40% average desensitization) was modulated by 107%, whereas the high desensitized group (10% average desensitization) was modulated to 247% of control by 10 µM EU1794-27 (Figure 4C and Figure 4—figure supplement 1F).
cDNAs for rat wild type NMDAR subunits GluN1-1a (GenBank U11418, U08261; hereafter GluN1 or GluN1a), GluN1-1b (U08263, hereafter GluN1b), GluN2A (D13211), GluN2B (U11419), GluN2C (M91563), and GluN2D (L31611, modified as described in [Monyer et al., 1994]) were provided by Drs. S. Heinemann (Salk Institute), S. Nakanishi (Kyoto University), and P. Seeburg (University of Heidelberg). Site-directed mutagenesis was conducted using the QuikChange kit (Agilent Technologies, Santa Clara, CA) following the recommended protocol. DNA sequencing was used to verify all mutations. The amino acid numbering system started with the initiating methionine as residue number one. For expression in Xenopus laevis oocytes, cDNA constructs were linearized by restriction enzymes, and subsequently used to synthesize in vitro cRNAs following the manufacturer’s protocol (mMessage mMachine, Ambion, ThermoFisher Scientific, Waltham, MA).
HEK293 cells (CRL-1573, ATCC, Manassas, VA) were maintained in a tissue culture room solely reserved for their culturing and transfected using a CaPO4 protocol to express the diheteromeric NMDARs as previously described ([Hansen et al., 2013]). Cell lines were obtained directly from the supplier, were expanded, frozen and kept in liquid nitrogen in a dewar. Mycoplasma testing was not performed. cDNA ratios for transfection were 1:1:1 (GluN2D) or 1:1:5 (GluN2A) for GluN1:GluN2:GFP. […]

[1] = glutamate/glycine 100/30 µM, no second modulator (+EU1794-27 0 µM), read-out: IC50 (µM) [conf. int.]
[2] = saturating glutamate/glycine 100/30 µM, mean [95% CI], read-out: EC50 (µM) [conf. int.]
[3] = saturating glutamate/glycine 100/30 µM, mean ± SEM
[4] = sub-saturating glutamate/glycine 0.6/0.2 µM, read-out: EC50 (µM) [conf. int.]
[5] = sub-saturating glutamate/glycine 0.6/0.2 µM
[6] = concentration dependence of linear component of time course

IC50 (GluN1/GluN2D NMDARs; [1]) | EC50 (GluN1/GluN2D NMDARs; [2]) | Emax (GluN1/GluN2D NMDARs; [3]) | EC50 (GluN1/GluN2D NMDARs; [4]) | Emax (GluN1/GluN2D NMDARs; [5]) | kon (GluN1/GluN2A NMDARs) | koff (GluN1/GluN2A NMDARs) | Kd (GluN1/GluN2A NMDARs) | SMILES | modulation of high desensitized steady state responses (GluN1/GluN2A NMDARs) | modulation of low desensitized steady state responses (drug/control) (GluN1/GluN2A NMDARs) | further results
0.2 µM | 0.2 µM | 14% | 0.32 µM | 24% | 390000 M⁻¹ s⁻¹ | 0.938 s⁻¹ | 2410 nM | CCOC(=O)c1c(NC(=O)CC2SC(=N)NC2=O)sc2c1CCC(C)C2 (stereo not drawn) [EU1794-2, ethyl 2-(2-(2-imino-4-oxothiazolidin-5-yl)acetamido)-6-methyl-4,5,6,7-tetrahydrobenzo[b]thiophene-3-carboxylate] | 32 % of control | 13 % of control | IC50 (GluN1/GluN2D NMDARs; +EU1794-27 3 µM, glutamate/glycine 100/30 µM, read-out: EU1794-2 IC50 (µM) [conf. int.]): 1.4 µM; IC50 (GluN1/GluN2D NMDARs; +EU1794-27 10 µM, glutamate/glycine 100/30 µM, read-out: EU1794-2 IC50 (µM) [conf. int.]): 2.7 µM; IC50 (GluN1/GluN2D NMDARs; +EU1794-27 20 µM, glutamate/glycine 100/30 µM, read-out: EU1794-2 IC50 (µM) [conf. int.]): 7.3 µM
0.36 µM | 0.36 µM | 51% | – | – | 502000 M⁻¹ s⁻¹ | 3.94 s⁻¹ | 7850 nM | CCOC(=O)c1c(NC(=O)CC2SC(=N)NC2=O)sc2c1CCCC2 (stereo not drawn) [EU1794-4, ethyl 2-(2-(2-imino-4-oxothiazolidin-5-yl)acetamido)-4,5,6,7-tetrahydrobenzo[b]thiophene-3-carboxylate] | – | 47 % of control | Fold Difference (glutamate EC50) (GluN1/GluN2D NMDARs; control vs 10 µM EU1794-4): 3.9^†; Fold Difference (glycine EC50) (GluN1/GluN2D NMDARs; control vs 10 µM EU1794-4): 8.9^†; EC50 (GluN1/GluN2D NMDARs; sub-saturating glutamate/glycine 0.3/0.09 µM, read-out: EC50 (µM) [conf. int.]): 14 µM; Emax (GluN1/GluN2D NMDARs; sub-saturating glutamate/glycine 0.3/0.09 µM): 540%
– | 2.4 µM | 250% | 8.3 µM | 580% | 59200 M⁻¹ s⁻¹ | 0.426 s⁻¹ | 7200 nM | CC(C)(C)OC(=O)c1c(NC(=O)CC2SC(=N)NC2=O)sc2c1CCCC2 (stereo not drawn) [EU1794-27, tert-butyl 2-(2-(2-imino-4-oxothiazolidin-5-yl)acetamido)-4,5,6,7-tetrahydrobenzo[b]thiophene-3-carboxylate] | 247 % of control and 247 ± 31 % of control | 107 % of control and 107 ± 16 % of control | EC50 (GluN1/GluN2D NMDARs; +EU1794-2 1 µM, glutamate/glycine 100/30 µM, read-out: EU1794-27 EC50 (µM) [conf. int.]): 7.5 µM; EC50 (GluN1/GluN2D NMDARs; +EU1794-2 3 µM, glutamate/glycine 100/30 µM, read-out: EU1794-27 EC50 (µM) [conf. int.]): 7.8 µM; Fold Difference (glutamate EC50) (GluN1/GluN2D NMDARs; control vs 10 µM EU1794-27): 5.3^†; Fold Difference (glycine EC50) (GluN1/GluN2D NMDARs; control vs 10 µM EU1794-27): 4.9^†; association linear component slope mon (GluN1/GluN2A NMDARs; [6]): −0.33 pA/(s*µM); dissociation linear component slope moff (GluN1/GluN2A NMDARs; [6]): 0.16 pA/(s*µM)
